Assay results reported in PubChem BioAssay (NCI).
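Briefly, cells in 96-well plates were exposed to five compound concentrations for 48 h, and endpoints were estimated by linear interpolation. TGI: total growth inhibition.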

What was measured:
Assay in all cases: growth of human tumour cells (NCI), 48 h
786-0 renal = test system: 786-0 renal
A549 NSCLC = test system: A549 NSCLC
ACHN renal = test system: ACHN renal
CCRF-CEM leukemia = test system: CCRF-CEM leukemia
COLO 205 colon = test system: COLO 205 colon
DLD-1 colon = test system: DLD-1 colon
DMS 114 small cell lung = test system: DMS 114 small cell lung
DMS 273 small cell lung = test system: DMS 273 small cell lung
EKVX NSCLC = test system: EKVX NSCLC
HCC-2998 colon = test system: HCC-2998 colon
HCT-116 colon = test system: HCT-116 colon
HCT-15 colon = test system: HCT-15 colon
HL-60(TB) leukemia = test system: HL-60(TB) leukemia
HOP-62 NSCLC = test system: HOP-62 NSCLC
HT29 colon = test system: HT29 colon
IGROV1 ovarian = test system: IGROV1 ovarian
K-562 leukemia = test system: K-562 leukemia
KM12 colon = test system: KM12 colon
KM20L2 colon = test system: KM20L2 colon
LOX IMVI melanoma = test system: LOX IMVI melanoma
LXFL 529 NSCLC = test system: LXFL 529 NSCLC
M14 melanoma = test system: M14 melanoma
M19-MEL melanoma = test system: M19-MEL melanoma
MALME-3M melanoma = test system: MALME-3M melanoma
MOLT-4 leukemia = test system: MOLT-4 leukemia
NCI-H23 lung = test system: NCI-H23 lung
NCI-H460 lung = test system: NCI-H460 lung
NCI-H522 lung = test system: NCI-H522 lung
OVCAR-3 ovarian = test system: OVCAR-3 ovarian
OVCAR-8 ovarian = test system: OVCAR-8 ovarian
RPMI-8226 leukemia = test system: RPMI-8226 leukemia
RXF 393 renal = test system: RXF 393 renal
SF-268 CNS = test system: SF-268 CNS
SF-295 CNS = test system: SF-295 CNS
SF-539 CNS = test system: SF-539 CNS
SK-MEL-28 melanoma = test system: SK-MEL-28 melanoma
SK-OV-3 ovarian = test system: SK-OV-3 ovarian
SN12C renal = test system: SN12C renal
SNB-19 CNS = test system: SNB-19 CNS
SNB-75 CNS = test system: SNB-75 CNS
SNB-78 CNS = test system: SNB-78 CNS
SR leukemia = test system: SR leukemia
SW-620 colon = test system: SW-620 colon
TK-10 renal = test system: TK-10 renal
U251 CNS = test system: U251 CNS
UACC-257 melanoma = test system: UACC-257 melanoma
UACC-62 melanoma = test system: UACC-62 melanoma
UO-31 renal = test system: UO-31 renal
A498 renal = test system: A498 renal
CAKI-1 renal = test system: CAKI-1 renal
HOP-18 NSCLC = test system: HOP-18 NSCLC
HOP-92 NSCLC = test system: HOP-92 NSCLC
NCI-H226 lung = test system: NCI-H226 lung
OVCAR-4 ovarian = test system: OVCAR-4 ovarian
OVCAR-5 ovarian = test system: OVCAR-5 ovarian
SK-MEL-2 melanoma = test system: SK-MEL-2 melanoma
SK-MEL-5 melanoma = test system: SK-MEL-5 melanoma

## CCCCc1c2c(nc3c1CC/C(=C\c1ccccc1)C3=O)CCCC2
786-0 renal
  TGI: 5.64 µM
A549 NSCLC
  TGI: 28 µM
ACHN renal
  TGI: 25.9 µM
CCRF-CEM leukemia
  TGI: 29.4 µM
COLO 205 colon
  TGI: 23.1 µM
DLD-1 colon
  TGI: 12.7 µM
DMS 114 small cell lung
  TGI: 27.5 µM
DMS 273 small cell lung
  TGI: 8.26 µM
EKVX NSCLC
  TGI: 24.9 µM
HCC-2998 colon
  TGI: 8.34 µM
HCT-116 colon
  TGI: 16.1 µM
HCT-15 colon
  TGI: 12.3 µM
HL-60(TB) leukemia
  TGI: 10.3 µM
HOP-62 NSCLC
  TGI: 16.5 µM
HT29 colon
  TGI: 4.75 µM
IGROV1 ovarian
  TGI: 15.2 µM
K-562 leukemia
  TGI: 32.3 µM
KM12 colon
  TGI: 13.5 µM
KM20L2 colon
  TGI: 12.7 µM
LOX IMVI melanoma
  TGI: 3.48 µM
LXFL 529 NSCLC
  TGI: 4.16 µM
M14 melanoma
  TGI: 18.9 µM
M19-MEL melanoma
  TGI: 16.9 µM
MALME-3M melanoma
  TGI: 20.2 µM
MOLT-4 leukemia
  TGI: 11.7 µM
NCI-H23 lung
  TGI: 17.7 µM
NCI-H460 lung
  TGI: 17.7 µM
NCI-H522 lung
  TGI: 6.37 µM
OVCAR-3 ovarian
  TGI: 10.4 µM
OVCAR-8 ovarian
  TGI: 4.79 µM
RPMI-8226 leukemia
  TGI: 7.04 µM
RXF 393 renal
  TGI: 6.35 µM
SF-268 CNS
  TGI: 12.6 µM
SF-295 CNS
  TGI: 16 µM
SF-539 CNS
  TGI: 4.71 µM
SK-MEL-28 melanoma
  TGI: 9.52 µM
SK-OV-3 ovarian
  TGI: 22.9 µM
SN12C renal
  TGI: 10.9 µM
SNB-19 CNS
  TGI: 12.6 µM
SNB-75 CNS
  TGI: 23 µM
SNB-78 CNS
  TGI: 9.38 µM
SR leukemia
  TGI: 11.5 µM
SW-620 colon
  TGI: 5.32 µM
TK-10 renal
  TGI: 21.1 µM
U251 CNS
  TGI: 10.8 µM
UACC-257 melanoma
  TGI: 18.3 µM
UACC-62 melanoma
  TGI: 7.04 µM
UO-31 renal
  TGI: 19.1 µM

## O=C(/C=C/c1ccc(OCC(=O)N2CCN(c3ccccc3)CC2)cc1)c1ccccc1
786-0 renal
  TGI: > 57.9 µM
A498 renal
  TGI: > 100 µM
A549 NSCLC
  TGI: > 100 µM
ACHN renal
  TGI: > 89.6 µM
CAKI-1 renal
  TGI: > 100 µM
CCRF-CEM leukemia
  TGI: > 25.6 µM
COLO 205 colon
  TGI: > 100 µM
DLD-1 colon
  TGI: > 100 µM
EKVX NSCLC
  TGI: 98.9 µM
HCC-2998 colon
  TGI: > 72.4 µM
HCT-116 colon
  TGI: > 56.6 µM
HCT-15 colon
  TGI: > 100 µM
HL-60(TB) leukemia
  TGI: 30.8 µM
HOP-18 NSCLC
  TGI: > 82.7 µM
HOP-62 NSCLC
  TGI: > 100 µM
HOP-92 NSCLC
  TGI: > 100 µM
HT29 colon
  TGI: > 100 µM
IGROV1 ovarian
  TGI: > 100 µM
K-562 leukemia
  TGI: > 43 µM
KM12 colon
  TGI: > 75 µM
KM20L2 colon
  TGI: > 66 µM
LOX IMVI melanoma
  TGI: 10.7 µM
LXFL 529 NSCLC
  TGI: > 94.2 µM
M14 melanoma
  TGI: > 100 µM
M19-MEL melanoma
  TGI: > 100 µM
MALME-3M melanoma
  TGI: > 58.2 µM
MOLT-4 leukemia
  TGI: > 25.2 µM
NCI-H226 lung
  TGI: > 60.4 µM
NCI-H23 lung
  TGI: 85.6 µM
NCI-H460 lung
  TGI: > 87 µM
NCI-H522 lung
  TGI: > 56.8 µM
OVCAR-3 ovarian
  TGI: > 100 µM
OVCAR-4 ovarian
  TGI: > 100 µM
OVCAR-5 ovarian
  TGI: > 90 µM
OVCAR-8 ovarian
  TGI: > 67.5 µM
RPMI-8226 leukemia
  TGI: > 27.2 µM
RXF 393 renal
  TGI: 51.6 µM
SF-268 CNS
  TGI: > 89.4 µM
SF-295 CNS
  TGI: > 100 µM
SF-539 CNS
  TGI: 46.8 µM
SK-MEL-2 melanoma
  TGI: > 60.4 µM
SK-MEL-28 melanoma
  TGI: 54.5 µM
SK-MEL-5 melanoma
  TGI: > 53 µM
SK-OV-3 ovarian
  TGI: > 100 µM
SN12C renal
  TGI: > 100 µM
SNB-19 CNS
  TGI: > 82.9 µM
SNB-75 CNS
  TGI: > 78.9 µM
SNB-78 CNS
  TGI: > 100 µM
SR leukemia
  TGI: 7.45 µM
SW-620 colon
  TGI: > 28.4 µM
TK-10 renal
  TGI: > 79.4 µM
U251 CNS
  TGI: 38 µM
UACC-257 melanoma
  TGI: > 100 µM
UACC-62 melanoma
  TGI: > 59.7 µM
UO-31 renal
  TGI: > 62 µM
